# Data published in ChEMBL document CHEMBL1132062, “A new class of potent RAR antagonists: dihydroanthracenyl, benzochromenyl and benzothiochromenyl retinoids” (Bioorg Med Chem Lett, 1999).
# Experiments:
# [1] = molecular target: T1, Retinoic acid receptor gamma (Homo sapiens, UniProt P13631); assay: Binding affinity of [3H]- RA to baculovirus expressed human Retinoic acid receptor gamma
# T1 sequence (P13631 whole entry): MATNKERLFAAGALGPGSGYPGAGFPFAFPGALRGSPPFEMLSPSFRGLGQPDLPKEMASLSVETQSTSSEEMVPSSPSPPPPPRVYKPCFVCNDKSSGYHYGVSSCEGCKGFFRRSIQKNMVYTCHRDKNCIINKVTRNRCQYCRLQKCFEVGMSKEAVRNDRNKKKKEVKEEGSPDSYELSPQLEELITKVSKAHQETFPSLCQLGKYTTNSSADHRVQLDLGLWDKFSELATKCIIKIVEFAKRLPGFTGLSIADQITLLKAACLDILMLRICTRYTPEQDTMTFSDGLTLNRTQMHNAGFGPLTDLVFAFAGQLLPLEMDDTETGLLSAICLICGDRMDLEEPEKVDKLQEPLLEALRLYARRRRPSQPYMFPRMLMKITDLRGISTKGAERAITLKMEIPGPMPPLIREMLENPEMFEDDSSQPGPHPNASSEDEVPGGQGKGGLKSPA
# [2] = molecular target: T2, Retinoic acid receptor beta (Homo sapiens, UniProt P10826); assay: Binding affinity of [3H]- RA to baculovirus expressed human Retinoic acid receptor beta
# T2 sequence (P10826 whole entry): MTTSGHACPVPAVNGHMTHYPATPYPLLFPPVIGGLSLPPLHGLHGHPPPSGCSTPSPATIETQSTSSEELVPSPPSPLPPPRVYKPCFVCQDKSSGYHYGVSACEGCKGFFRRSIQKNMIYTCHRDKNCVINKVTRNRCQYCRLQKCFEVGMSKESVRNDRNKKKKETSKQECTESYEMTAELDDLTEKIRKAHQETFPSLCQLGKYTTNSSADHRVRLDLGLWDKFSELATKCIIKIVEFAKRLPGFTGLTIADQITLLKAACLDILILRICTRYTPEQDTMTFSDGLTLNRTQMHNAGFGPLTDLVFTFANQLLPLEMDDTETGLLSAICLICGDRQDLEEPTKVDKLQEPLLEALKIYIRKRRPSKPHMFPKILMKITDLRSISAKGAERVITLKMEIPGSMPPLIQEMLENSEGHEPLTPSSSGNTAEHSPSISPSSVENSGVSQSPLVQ
# [3] = molecular target: T1, Retinoic acid receptor gamma; assay: Antagonistic activity against RAR gamma in transcriptional activation assay with 3.2 nM TTNPB; type: functional
# [4] = molecular target: T3, Retinoic acid receptor alpha (Homo sapiens, UniProt P10276); assay: Binding affinity of [3H]- RA to baculovirus expressed human RAR alpha
# T3 sequence (P10276 whole entry): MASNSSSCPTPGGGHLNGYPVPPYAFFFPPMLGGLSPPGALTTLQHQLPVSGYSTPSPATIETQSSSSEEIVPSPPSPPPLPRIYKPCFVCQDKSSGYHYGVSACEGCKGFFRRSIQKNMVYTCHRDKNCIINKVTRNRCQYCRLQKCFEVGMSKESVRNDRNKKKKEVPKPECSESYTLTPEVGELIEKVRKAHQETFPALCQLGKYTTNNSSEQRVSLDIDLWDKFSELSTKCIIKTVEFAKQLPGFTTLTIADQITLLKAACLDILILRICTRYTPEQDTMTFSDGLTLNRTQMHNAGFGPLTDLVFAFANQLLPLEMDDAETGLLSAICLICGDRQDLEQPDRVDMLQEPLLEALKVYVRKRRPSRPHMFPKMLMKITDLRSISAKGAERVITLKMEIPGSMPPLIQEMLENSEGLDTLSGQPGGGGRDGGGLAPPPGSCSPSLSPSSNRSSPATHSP
# [5] = molecular target: T2, Retinoic acid receptor beta; assay: Antagonistic activity against RAR beta in transcriptional activation assay with 10 nM TTNPB; type: functional
# [6] = molecular target: T3, Retinoic acid receptor alpha; assay: Antagonistic activity against RAR alpha in transcriptional activation assay with 32 nM TTNPB; type: functional
# [7] = molecular target: T4, Retinoic acid receptor alpha (Homo sapiens) (UniProt P10276); assay: Relative inhibition of TTNPB activity vs background activity (100% inhibition) against RAR alpha; type: functional; conditions: concentration not given here
# T4 sequence (whole entry): T3 sequence (P10276 whole entry)
# [8] = molecular target: T5, Retinoic acid receptor beta (Homo sapiens) (UniProt P10826); assay: Relative inhibition of TTNPB activity vs background activity (100% inhibition) against RAR beta; type: functional; conditions: concentration not given here
# T5 sequence (whole entry): T2 sequence (P10826 whole entry)
# [9] = molecular target: T6, Retinoic acid receptor gamma (Homo sapiens) (UniProt P13631); assay: Relative inhibition of TTNPB activity vs background activity(100% inhibition) against RAR gamma; type: functional; conditions: concentration not given here
# T6 sequence (whole entry): T1 sequence (P13631 whole entry)
# Mus musculus [10] = organism: Mus musculus; assay: Compound was tested for abrasion score in mice at a dose of 3.6 nmol/25 g of TTNPB and 28.8 nmol/25 g of the compound; type: functional
# Mus musculus [11] = organism: Mus musculus; assay: Compound was tested for abrasion score in mice at a dose of 3.6 nmol/25 g of TTNPB and 7.2 nmol/25 g of the compound; type: functional
# Mus musculus [12] = organism: Mus musculus; assay: Compound was tested for flaking score in mice at a dose of 3.6 nmol/25 g of TTNPB and 7.2 nmol/25 g of the compound; type: functional
# Mus musculus [13] = organism: Mus musculus; assay: Compound was tested for its effect on body weight gain in mice at a dose of 3.6 nmol/25 g of TTNPB and 28.8 nmol/25 g of the compound; type: functional
# Mus musculus [14] = organism: Mus musculus; assay: Compound was tested for its effect on body weight gain in mice at a dose of 3.6 nmol/25 g of TTNPB and 7.2 nmol/25 g of the compound; type: functional
# Mus musculus [15] = organism: Mus musculus; assay: Compound was tested for cutaneous toxicity score in mice at a dose of 3.6 nmol/25 g of TTNPB and 28.8 nmol/25 g of the compound; type: functional
# Mus musculus [16] = organism: Mus musculus; assay: Compound was tested for cutaneous toxicity score in mice at a dose of 3.6 nmol/25 g of TTNPB and 7.2 nmol/25 g of the compound; type: functional
# Mus musculus [17] = organism: Mus musculus; assay: Compound was tested for flaking score in mice at a dose of 3.6 nmol/25 g of TTNPB and 28.8 nmol/25 g of the compound; type: functional
# Mus musculus [18] = organism: Mus musculus; assay: Compound was tested for abrasion score in mice at a dose of 3.6 nmol/25 g; type: functional
# Mus musculus [19] = organism: Mus musculus; assay: Compound was tested for flaking score in mice at a dose of 3.6 nmol/25 g; type: functional
# Mus musculus [20] = organism: Mus musculus; assay: Compound was tested for its effect on body weight gain in mice at a dose of 3.6 nmol/25 g; type: functional
# Mus musculus [21] = organism: Mus musculus; assay: Compound was tested for cutaneous toxicity score in mice at a dose of 3.6 nmol/25 g; type: functional
Compound,Kd [1] [nM],Kd [2] [nM],IC50 [3] [nM],Kd [4] [nM],IC50 [5] [nM],IC50 [6] [nM],inhibition [7] [%],inhibition [8] [%],inhibition [9] [%],also measured
Cc1ccc(C2=CCC(C)(C)c3cc4ccc(-c5ccc(C(=O)O)cc5)cc4cc32)cc1 [listing 1 of 2 here],7,4,2,13,22,20,,,,
Cc1ccc(C2=CC(C)(C)Sc3cc4ccc(-c5ccc(C(=O)O)cc5)cc4cc32)cc1 [listing 1 of 2 here],,,,,,,97,98,98,
Cc1ccc(C2=CCC(C)(C)c3cc4ccc(-c5ccc(C(=O)O)cc5)cc4cc32)cc1 [listing 2 of 2 here],,,,,,,97,97,98,
Cc1ccc(C2=CC(C)(C)Oc3cc4ccc(-c5ccc(C(=O)O)cc5)cc4cc32)cc1 [listing 1 of 2 here],14,7,2,14,7.5,5.5,,,,
Cc1ccc(C2=CC(C)(C)Oc3cc4ccc(-c5ccc(C(=O)O)cc5)cc4cc32)cc1 [listing 2 of 2 here],,,,,,,97,98,98,
C/C(=C\c1ccc(C(=O)O)cc1)c1ccc2c(c1)C(C)(C)CCC2(C)C.Cc1ccc(C2=CC(C)(C)Oc3cc4ccc(-c5ccc(C(=O)O)cc5)cc4cc32)s1,,,,,,,,,,Abrasion score (Mus musculus [10]): 1; Abrasion score (Mus musculus [11]): 3; Flaking score (Mus musculus [12]): 2; Gain (Mus musculus [13]): 1%; Gain (Mus musculus [14]): 6%; Cutaneous toxicology score (Mus musculus [15]): 3; Cutaneous toxicology score (Mus musculus [16]): 4.6; Flaking score (Mus musculus [17]): 2
C/C(=C\c1ccc(C(=O)O)cc1)c1ccc2c(c1)C(C)(C)CCC2(C)C.Cc1ccc(C2=CC(C)(C)Sc3cc4ccc(-c5ccc(C(=O)O)cc5)cc4cc32)cc1,,,,,,,,,,Abrasion score (Mus musculus [10]): 0; Abrasion score (Mus musculus [11]): 0; Flaking score (Mus musculus [12]): 1; Gain (Mus musculus [13]): 0%; Gain (Mus musculus [14]): 5%; Cutaneous toxicology score (Mus musculus [15]): 0.7; Cutaneous toxicology score (Mus musculus [16]): 1.4; Flaking score (Mus musculus [17]): 1
C/C(=C\c1ccc(C(=O)O)cc1)c1ccc2c(c1)C(C)(C)CCC2(C)C,,,,,,,,,,Abrasion score (Mus musculus [18]): 2; Flaking score (Mus musculus [19]): 3; Gain (Mus musculus [20]): 6%; Cutaneous toxicology score (Mus musculus [21]): 11
Cc1ccc(C2=CC(C)(C)Oc3cc4ccc(-c5ccc(C(=O)O)cc5)cc4cc32)s1,,,4,,6.5,6.5,97,98,97,
Cc1ccc(C2=CC(C)(C)Sc3cc4ccc(-c5ccc(C(=O)O)cc5)cc4cc32)cc1 [listing 2 of 2 here],5,6,0.5,5.5,2,1.5,,,,
Cc1ccc(C2=CCC(C)(C)c3cc4ccc(-c5ccc(C(=O)O)cc5)cc4cc32)s1,11,6,2,15,15,20,95,83,96,
C/C(=C\c1ccc(C(=O)O)cc1)c1ccc2c(c1)C(C)(C)CCC2(C)C.Cc1ccc(C2=CCC(C)(C)c3cc4ccc(-c5ccc(C(=O)O)cc5)cc4cc32)cc1,,,,,,,,,,Abrasion score (Mus musculus [10]): 0; Abrasion score (Mus musculus [11]): 1; Flaking score (Mus musculus [12]): 1; Gain (Mus musculus [13]): 5%; Gain (Mus musculus [14]): 2%; Cutaneous toxicology score (Mus musculus [15]): 1.1; Cutaneous toxicology score (Mus musculus [16]): 2; Flaking score (Mus musculus [17]): 1
C/C(=C\c1ccc(C(=O)O)cc1)c1ccc2c(c1)C(C)(C)CCC2(C)C.Cc1ccc(C2=CC(C)(C)Oc3cc4ccc(-c5ccc(C(=O)O)cc5)cc4cc32)cc1,,,,,,,,,,Abrasion score (Mus musculus [10]): 0; Abrasion score (Mus musculus [11]): 1; Flaking score (Mus musculus [12]): 1; Gain (Mus musculus [13]): 2%; Gain (Mus musculus [14]): 3%; Cutaneous toxicology score (Mus musculus [15]): 1; Cutaneous toxicology score (Mus musculus [16]): 1.9; Flaking score (Mus musculus [17]): 1
Cc1ccc(C2=CC(C)(C)Sc3cc4ccc(-c5ccc(C(=O)O)cc5)cc4cc32)s1,18,13,,13,,,,,,
